“And” between values parts separate entries of the source, which are not always exact repeats. Equal entries are not always repeated.

We go through one molecule from patent US20200038416A1, “METHODS OF TREATING CARDIAC CONDUCTION DEFECTS USING AMINOSTEROL COMPOSITIONS” (Enterin, Inc., priority 2018, published 2020).

For data set [1], the system named is patients with PD. Nature of the data set: Sleep diary: total sleep time and REM-behavior disorder. Type of data set: in vivo, human. As to the method:
FIG. 3 is a chart of total sleep time in relation to squalamine dose. Total sleep time was obtained from the sleep diary by subtracting awake time during the night from total time spent in bed. Total sleep time per night was logged for each patient at baseline, each dosing period and at washout, and the means were determined. The light grey bar represents the baseline value for each cohort at a given dose level and the dark grey bar represents the value for the same cohort at the stated dose of squalamine (ENT-01; Kenterin™). The number of patients represented at each value are: Baseline, 33; 75 mg, 21; 100 mg, 28; 125 mg, 18; 150 mg, 15; 175 mg, 12; 200 mg, 7; 225 mg, 3; 250 mg, 2; washout, 33. P values were as follows: 75 mg, p=0.4; 100 mg, p=0.1; 125 mg, p=0.3; 150 mg, p=0.07; 175 mg, p=0.03; 200 mg, p=0.3; 225 mg, p=0.5; 250 mg, p=0.3; wash-out, p=0.04 (paired t test).
(5) Sleep Diary (participants completed a sleep diary on a daily basis throughout the study. The diaries included time into bed and estimated time to sleep as well as wake time and duration during the night.); […]

Details of data set [2]: species or system rats. The note with it: rat, in vivo, po.
The test system of data set [3] is patients with PD. Put plainly: CNS symptoms in Stage 2 (UPDRS, MMSE, PDHQ, BDI-II, hallucinations). In kind it is in vivo, human. As to conditions: for patients whose hallucinations or delusions improved or disappeared during treatment: 6 patients with hallucinations (5) or delusions (1) at baseline. An excerpt:
Exploratory end-points, in addition to constipation, included for example, (i) depression assessed using the Beck Depression Inventory (BDI-II) (Steer et al. 2000) and Unified Parkinson's Disease Rating Scale (UPDRS); (ii) cognition assessed using the Mini Mental State Examination (MMSE), Unified Parkinson's Disease Rating Scale (UPDRS), and Trail Making Test (TMT); (iii) sleep and REM-behavior disorder (RBD) using a daily sleep diary, I-Button Temperature Assessment, a REM sleep behavior disorder (RBD) questionnaire (RBDQ) (Stiasny-Kolster et al. 2007), and the UPDRS; (iv) hallucinations assessed using the PD hallucinations questionnaire (PDHQ) (Papapetropoulos et al. 2008), the UPDRS, and direct questioning; (v) fatigue using the Parkinson's Disease Fatigue Scale (PFS-16) and the UPDRS; (vi) motor functions using the UPDRS; and (vii) non-motor functions using the UPDRS.
Assessments were made at baseline and at the end of the fixed dose and washout periods. Circadian system status was evaluated by continuously monitoring wrist skin temperature (Thermochron iButton DS1921H; Maxim, Dallas) following published procedures (Sarabia et al. 2008).
An exploratory analysis was done with respect to the sleep data, the body temperature data, mood, fatigue, hallucinations, cognition and other motor and non-motor symptoms of PD. Continuous measurements within a subject were compared with a paired t-test and continuous measurements between subject groups were compared with a two-group t-test. Categorical data were compared with a chi-squared test or a Fisher's exact test if the expected cell counts are too small for a chi-squared test.
CNS symptoms were evaluated at baseline and at the end of the fixed dose period and the wash-out period (Table 12). Total UPDRS score was 64.4 at baseline, 60.6 at the end of the fixed dose period and 55.7 at the end of the wash-out period (p=0.002); similarly, the motor component of the UPDRS improved from 35.3 at baseline to 33.3 at the end of fixed dose to 30.2 at the end of wash-out (p=0.006). MMSE improved from 28.4 at baseline to 28.7 during treatment and to 29.3 during wash-out (p=0.0006). […] PDHQ improved from 1.3 at baseline to 1.8 during treatment and 0.9 during wash-out (p=0.03). Hallucinations were reported by 5 patients at baseline and delusions in 1 patient. […] The frequency of arm or leg thrashing reported in the sleep diary diminished progressively from 2.2 episodes/week at baseline to 0 at maximal dose. […] Unlike stool-related indices, the improvement in many CNS symptoms persisted during wash-out.

Data set [4] concerns patients with PD and constipation. Put plainly: Phase 2 trial Stage 2: bowel function / stool related indices on daily oral dosing. In kind it is in vivo, human. The note with it: for CSBM/week in the randomized cohort, Treatment (n = 6): baseline 0.8. How it is done: Following successful screening, all subjects underwent a 14-day run-in period where the degree of constipation was assessed through a validated daily log (Zinsmeister et al. 2013) establishing baseline CSBMs/week. Subjects with an average of <3 CSBMs/week proceeded to dosing.
In Stage 2, 34 patients were evaluated.
The primary efficacy outcome variable was whether or not a subject was a “success” or “failure”. This is an endpoint based on subject diary entries for the “fixed dose” period prior to the endpoint assessment defined as average complete stool frequency increase by 1 or more over baseline, or 3 or more complete spontaneous stools/week. The subject was deemed a “success” if s/he met one or more of the criteria listed above, otherwise the subject was deemed a “failure”. The primary analysis was based on all subjects with a baseline assessment and an assessment at the end of the “fixed-dose” period and was a comparison of the proportion of successes with 0.10 (the null hypothesis corresponding to no treatment effect).

Take `CC(C)[C@@H](CC[C@@H](C)[C@H]1CC[C@H]2[C@@H]3[C@H](O)C[C@H]4C[C@@H](NCCCNCCCCN)CC[C@]4(C)[C@H]3CC[C@]12C)OS(=O)(=O)O` (single isomer, unassigned) [squalamine (ENT-01), squalamine]: the “RBD and total sleep time” value with patients with PD [1] (dose escalation, Stage 2) was “improved progressively in a dose-dependent manner”. Further, in the data set on patients with PD [1] (doses beyond 125 mg), the “total sleep time versus baseline by dose” value is recorded as “consistently higher than baseline beyond 125 mg”. For the same molecule, the “absorption from the intestine” value in data set [2] was “low”. Moreover, the “patients whose hallucinations or delusions improved or disappeared during treatment” value is “five and 5 of 6” in the data set with patients with PD [3]; “five” in the data set with patients with PD [3] (listed as ENT-01). In addition, the “improvement in Part 1 of the UPDRS” value with patients with PD [3] (baseline 11.6 to wash-out 9.5) is approximately 20%. The “time hallucinations/delusions did not return following discontinuation” value in the data set with patients with PD [3] (single patients) is 4 weeks and 2 weeks. Moreover, the “CSBM/week in the randomized cohort, group later randomized to Placebo (n = 9)” value in data set [4] (Fixed dose period (on drug, before randomization), baseline 1.6) was determined as 3.3 CSBM/week. Besides, the “CSBM/week in the randomized cohort, Treatment (n = 6)” value is recorded as 3.2 CSBM/week in data set [4] (Fixed dose period), 2.4 CSBM/week in data set [4] (Randomized period (4-6 days continued treatment)) and 0.9 CSBM/week in data set [4] (Washout).
